Experimental data from patent US12023335B2, “Method for treating pancreatic cancer” (PTC THERAPEUTICS, INC., priority 2018, dated 2024).

Columns and labels:
Aspc1 cells [1] = test: Aspc1 cell viability over time (AlamarBlue proliferation curves); type: cell-based, human; details: 0.1 μM or 1.0 μM, relative to vehicle (FIG. 1a)
Protocol: For proliferation curves, cells were plated in 96-well plates (Corning, 3603) and allowed to seed overnight. Replicate plates were plated for each time point since viability measurements were an endpoint procedure. The following day, cells were treated with Compound at indicated concentrations and treated with DMSO at the highest used concentration (always below 0.003%). Cells were treated for 96 hours, and viability was determined every 24 hours using AlamarBlue reagent (BioRad, BUF012B). Briefly, 10 μL of AlamarBlue was added to each well (100 μL), mixed briefly, and allowed to incubate at 37° C. and 5% CO2 for 4 hours. Following incubation, fluorescence was measured on a Promega multimode microplate reader. For analysis, background levels were subtracted from raw results, which were then normalized to be represented as a fold change compared to DMSO-treated cells on Day 0. All assays were carried out in at least triplicate with 4-8 technical replicates per treatment group, per experiment. (FIG. 1a and FIG. 10b)

Aspc1 cells [2] = test: Cell cycle analysis by flow cytometry (DNA content, PH3) in Aspc1 cells; type: cell-based, human
Protocol: Cells were seeded into 12-well or 6-well plates such that 16 hours later they would be approximately 30-50% confluent. Cells were then treated for 24 hours with either DMSO (<0.003%), Compound 1 (100 nM or 1 μM), or 100 nM nocodazole (Sigma, M1404). Following treatment, cells were harvested and fixed in ice-cold 70% ethanol for a minimum of one hour. Following fixation, cells were re-suspended in PBS+2% FBS+3 μM DAPI (BioLegend, 422801) or 0.25 μg 7-AAD (BD Pharmingen, 559925), and analyzed on a MACSQuant® Analyzer 10 (Miltenyi Biotec) or BD LSR II™. For cell cycle analysis time course experiments, cells were prepared as described above, except treated for 24, 48, or 72 hours. Data was analyzed using FlowJo software. Percent populations in G2/M were identified using the univariate cell cycle platform offered by FlowJo software. Percent populations >4N were determined by gating above the 4N population of DMSO-treated cells. (FIG. 1b, FIG. 1c, FIG. 2a, FIG. 2b, FIG. 10e, and FIG. 10g)
For phospho-Histone H3 (PH3) staining, cells were fixed and permeabilized according to manufacturer's instructions using the eBioscience Foxp3/Transcription Factor Staining Buffer Set (ThermoFisher, 00-5523-00). Cells were blocked with Fc Block (BD Biosciences, 564220) and stained using a PH3 (Ser10) antibody (BioLegend, 650805) with 5 uL per million cells (45 min, room temp, dark). Samples were analyzed on a BD Fortessa™ and analyzed by FlowJo software. (FIG. 1d and FIG. 3a)

PDA tumors in KPC mice = test: KPC intervention/survival study; type: in vivo; details: KPC mice (FIGS. 7a, 7b)
Protocol: Tumor formation in KPC mice was monitored by weekly palpation until the detection of a mass. Upon positive palpation, the mass was monitored by twice weekly ultrasound until the tumor reached an enrollable size of 4-7 mm average diameter. Once enrollable, KPC mice were randomly enrolled into a treatment arm of the intervention study. Mice were treated with vehicle, Compound 1 (17 mg/kg, PO, b.i.w.), gemcitabine alone (100 mg/kg, IP, b.i.w.), or Compound 1+gemcitabine. Mice receiving Compound 1 also received gemcitabine vehicle (saline, IP, b.i.w.) at a volume (μL) of 50× body weight (g). Mice receiving gemcitabine also received Compound 1 vehicle (0.5% hydroxypropylmethylcellulose with 0.1% Tween80 (w/v), PO, b.i.w.) at a volume (μL) of 5.7× body weight (g). All drug and vehicle combinations were administered simultaneously.
Tumor ultrasonography and volume quantification were carried out as described in Sastra S A, Olive K P, Quantification of murine pancreatic tumors by high-resolution ultrasound, Methods Mol Biol 2013; 980:249-66. […]
To prepare samples for immunohistochemistry, tissues were first fixed overnight in 10% phosphate-buffered formalin and then stored in 70% ethanol for long-term storage. […] Next, antigen retrieval was carried out in an experimentally determined, antibody-specific antigen retrieval buffer (usually 10 mM citrate, pH 6.0 or 10 mM Tris, pH 10.0). […]

SMILES: Cc1nc2ccc(F)cc2n1-c1nc(N)c(F)c(Nc2ccc(C(F)(F)F)cc2)n1 [Compound 1, 5-fluoro-2-(6-fluoro-2-methyl-1H-benzo[d]imidazol-1-yl)-N4-[4-(trifluoromethyl)phenyl]pyrimidine-4,6-diamine]
- relative Aspc1 cell viability over time (Aspc1 cells [1]): dose and time-dependent decrease in human PDA cell viability
- cell cycle arrest (percent cells in G0/G1, S, G2/M; percent in mitosis PH3+/4N) (Aspc1 cells [2]; 0.1 μM or 1.0 μM, 24 hours (FIGS. 1b-1d)): dose and time-dependent effect in cell cycle arrest
- percent of Aspc1 cells with DNA content >4N (polyploidy) (Aspc1 cells [2]; 0.1 μM or 1.0 μM, 24, 48, 72 hours (FIGS. 2a, 2b)): dose and time-dependent increase in the amount of human PDA cells affected by polyploidy
- mitotic arrest and apoptosis (Aspc1 cells [2]; multiple PDA cell lines (summary statement)): induce mitotic arrest and apoptosis in multiple PDA cell lines
- tumor volumes by high resolution 3D ultrasound (PDA tumors in KPC mice): time-dependent decrease in KPC mouse model PDA tumor volume
